# Source: patent US12303497B2, “Anti-androgens for the treatment of metastatic castration-sensitive prostate cancer” (priority 2019, dated 2025)
# Tested on: patients with metastatic castration-sensitive prostate cancer (mCSPC)
# [1] = within 30 days of last dose, n = 524
smiles,measurement,setting,value
"CNC(=O)c1ccc(N2C(=S)N(c3cnc(C#N)c(C(F)(F)F)c3)C(=O)C23CCC3)cc1F [Apalutamide, 4-[7-(6-cyano-5-trifluoromethylpyridin-3-yl)-8-oxo-6-thioxo-5,7-diazaspiro[3.4]oct-5-yl]-2-fluoro-N-methylbenzamide]",AE leading to dose interruption: Syncope,Grade ≥3,1 (0.2) no. (%)
same,AE leading to dose interruption: Thrombocytopenia,Grade ≥3,0 no. (%)
same,AE leading to dose interruption: Tongue ulceration,Grade ≥3,0 no. (%)
same,AE leading to dose interruption: Urethral stenosis,Grade ≥3,0 no. (%)
same,AE leading to dose interruption: Urinary incontinence,Grade ≥3,0 no. (%)
same,AE leading to dose interruption: Urinary retention,Grade ≥3,2 (0.4) no. (%)
same,AE leading to dose interruption: Urinary tract obstruction,Grade ≥3,1 (0.2) no. (%)
same,AE leading to dose interruption: Vertigo,Grade ≥3,1 (0.2) no. (%)
same,AE leading to dose interruption: Vomiting,Grade ≥3,0 no. (%)
same,AE leading to dose interruption: Weight increased,Grade ≥3,0 no. (%)
same,AE leading to dose reduction: Aspartate aminotransferase or alanine aminotransferase increased,Grade ≥3,0 no. (%)
same,AE leading to dose reduction: Asthenia,Grade ≥3,0 no. (%)
same,AE leading to dose reduction: Cognitive disorder,Grade ≥3,1 (0.2) no. (%)
same,AE leading to dose reduction: Dehydration,Grade ≥3,0 no. (%)
same,AE leading to dose reduction: Fatigue,Grade ≥3,2 (0.4) no. (%)
same,AE leading to dose reduction: General physical health deterioration,Grade ≥3,1 (0.2) no. (%)
same,AE leading to dose reduction: Headache,Grade ≥3,0 no. (%)
same,AE leading to dose reduction: Hot flush,Grade ≥3,0 no. (%)
same,AE leading to dose reduction: Hypertension,Grade ≥3,1 (0.2) no. (%)
same,AE leading to dose reduction: Lethargy,Grade ≥3,0 no. (%)
same,AE leading to dose reduction: Neutropenia,Grade ≥3,2 (0.4) no. (%)
same,AE leading to dose reduction: Pain,Grade ≥3,0 no. (%)
same,AE leading to dose reduction: Performance status decreased,Grade ≥3,0 no. (%)
same,AE leading to dose reduction: Rash (grouped term),Grade ≥3,11 (2.1) no. (%)
same,AE leading to dose reduction: Vertigo,Grade ≥3,1 (0.2) no. (%)
same,AE leading to dose reduction: Weight decreased,Grade ≥3,1 (0.2) no. (%)
same,AE of special interest: Fall,Grade ≥3,4 (0.8) no. (%)
same,AE of special interest: Fracture (grouped term),Grade ≥3,7 (1.3) no. (%)
same,AE of special interest: Hypothyroidism (grouped term),Grade ≥3,0 no. (%)
same,AE of special interest: Rash (grouped term),Grade ≥3,33 (6.3) no. (%)
same,AE of special interest: Seizure (grouped term),Grade ≥3,1 (0.2) no. (%)
same,Patients with treatment-emergent adverse events leading to discontinuation,Grade ≥3,26 (5.0) no. (%)
same,Patients with treatment-emergent adverse events leading to dose reduction,Grade ≥3,19 (3.6) no. (%)
same,Patients with treatment-emergent events leading to dose interruption,Grade ≥3,68 (13.0) no. (%)
same,TEAE: Anemia,Grade ≥3,9 (1.7) no. (%)
same,TEAE: Arthralgia,Grade ≥3,2 (0.4) no. (%)
same,TEAE: Asthenia,Grade ≥3,10 (1.9) no. (%)
same,TEAE: Back pain,Grade ≥3,12 (2.3) no. (%)
same,TEAE: Blood alkaline phosphatase increased,Grade ≥3,2 (0.4) no. (%)
same,TEAE: Bone pain,Grade ≥3,6 (1.1) no. (%)
same,TEAE: Constipation,Grade ≥3,0 no. (%)
same,TEAE: Fatigue,Grade ≥3,8 (1.5) no. (%)
same,TEAE: Hot flush,Grade ≥3,0 no. (%)
same,TEAE: Hypertension,Grade ≥3,44 (8.4) no. (%)
same,TEAE: Pain in extremity,Grade ≥3,3 (0.6) no. (%)
same,TEAE: Pruritus,Grade ≥3,1 (0.2) no. (%)
same,TEAE: Rash generalized,Grade ≥3,14 (2.7) no. (%)
same,TEAE: Urinary retention,Grade ≥3,0 no. (%)
same,TEAE: Weight increased,Grade ≥3,6 (1.1) no. (%)
same,Patients who died as the result of an adverse event,Ten patients,1.9%
same,Hypothyroidism reported,all events were grade 1 or 2,6.5%
same,AE leading to discontinuation: Suicide,in vivo,0 no. (%)
same,AE leading to dose interruption: Acute kidney injury,in vivo,1 (0.2) no. (%)
same,AE leading to dose interruption: Acute respiratory failure,in vivo,1 (0.2) no. (%)
same,AE leading to dose interruption: Allergy to chemicals,in vivo,1 (0.2) no. (%)
same,AE leading to dose interruption: Anemia,in vivo,0 no. (%)
same,AE leading to dose interruption: Angina unstable,in vivo,0 no. (%)
same,Frequency of grade 3 and 4 events,in vivo,42.2%
same,Frequency of serious adverse events,in vivo,19.8%
same,Grade 3 rashes,in vivo,6.3%
same,Ischemic events led to death,in vivo,two
same,Ischemic heart disease reported,in vivo,4.4%
same,Median time to onset of rash,in vivo,81 days
same,Most common event considered related to apalutamide: rash of any type,in vivo,6.3%
same,Rash of any grade (treatment-emergent skin rash),in vivo,27.1%
same,Stevens-Johnson syndrome or toxic epidermal necrolysis,in vivo,No Stevens-Johnson syndrome or toxic epidermal necrolysis was reported
same,All deaths within 30 days of last dose,"investigator reported, n = 524",18 (3.4) no. (%)
same,AE leading to death: Acute coronary syndrome,n = 524,0 no. (%)
same,AE leading to death: Acute kidney injury,n = 524,2 (0.4) no. (%)
same,AE leading to death: Acute myocardial infarction,n = 524,1 (0.2) no. (%)
same,AE leading to death: Cardiac failure,n = 524,0 no. (%)
same,AE leading to death: Cardio-respiratory arrest,n = 524,1 (0.2) no. (%)
same,AE leading to death: Cardiogenic shock,n = 524,1 (0.2) no. (%)
same,AE leading to death: Cerebrovascular accident,n = 524,1 (0.2) no. (%)
same,AE leading to death: Death,n = 524,0 no. (%)
same,AE leading to death: Hypothermia,n = 524,0 no. (%)
same,AE leading to death: Intracranial hemorrhage,n = 524,0 no. (%)
same,AE leading to death: Myocardial infarction,n = 524,1 (0.2) no. (%)
same,AE leading to death: Pulmonary embolism,n = 524,0 no. (%)
same,AE leading to death: Respiratory failure,n = 524,1 (0.2) no. (%)
same,AE leading to death: Sepsis,n = 524,0 no. (%)
same,AE leading to death: Subdural hemorrhage,n = 524,0 no. (%)
same,AE leading to death: Sudden cardiac death,n = 524,1 (0.2) no. (%)
same,AE leading to death: Sudden death,n = 524,0 no. (%)
same,AE leading to death: Suicide,n = 524,0 no. (%)
same,AE leading to death: Urosepsis,n = 524,0 no. (%)
same,AE leading to death: Vascular rupture,n = 524,0 no. (%)
same,Adverse event leading to death,n = 524,10 (1.9) no. (%)
same,Any adverse event,n = 524,507 (96.8) no. (%)
same,Any adverse event leading to treatment discontinuation,n = 524,42 (8.0) no. (%)
same,Any serious adverse event,n = 524,104 (19.8) no. (%)
same,Grade 3 or 4 adverse event,n = 524,221 (42.2) no. (%)
same,Patients with adverse events as the primary reason for discontinuation,n = 525,39 (7.4) no. (%)
same,Patients with adverse events leading to discontinuation,n = 525 (Table 5),42 (8.0) no. (%)
same,Death due to adverse event,[1],10 (1.9) no. (%)
same,Death due to prostate cancer,[1],8 (1.5) no. (%)
